# Reference: patent US10251874B2, “Crystalline forms of a JAK inhibitor compound” (THERAVANCE BIOPHARMA R&D IP, LLC, priority 2017, dated 2019)
# Read-outs that look alike come from different tables or passages of the source.
# How the values were obtained:
# [1] = test system: IFNγ-induced IP-10; experiment: Assay 14: Pharmacodynamic assay: inhibition of IFNγ-induced IP-10 in rabbits; type: in vivo, New Zealand White rabbits; conditions: rabbit
# Experimental: The ability of a single intravitreal administration of test compound to inhibit interferon-gamma (IFNγ) induced IP-10 protein levels was measured in rabbit vitreous and retina/choroid tissues.
# Solution formulations at concentrations of 1 mg/mL and 4 mg/mL of compound 1 of Example 2 were prepared as in Assay 12. A suspension formulation was prepared by combining crystalline compound 1 of Example 2 with 0.5% hydroxypropyl methylcellulose (HPMC E5), 0.02% Tween 80, and 9 mg/mL sodium chloride in purified water to attain a target concentration of 20 mg/mL.
# Male, New Zealand White rabbits (Liveon Biolabs, India) were used for the studies. Animals were acclimated after arrival at the research facilities (Jubilant Biosys Ltd., India). Each rabbit was given a total of two intravitreal (IVT) injections with a total dose volume of 50 μL per eye. The first IVT injection (45 μL per eye) delivered test compound or vehicle at a prescribed time point (i.e. 24 hours for the solution formulations or 1 week for the suspension formulation). The second IVT injection (5 μL per eye) delivered IFNγ (1 μg/eye; Stock solution 1 mg/mL; Kingfisher Biotech) or vehicle for the induction of IP-10. In brief, on the day of the injections, rabbits were anesthetized with an intramuscular injection of ketamine (35 mg/kg) and xylazine (5 mg/kg). Once deeply anesthetized, each eye was rinsed with sterile saline and IVT injections were performed using a 0.5 mL insulin syringe (50 units=0.5 mL) with a 31-gauge needle at the supra-nasal side of the both eyes by marking the position with a Braunstein fixed caliper (2 ¾″) 3.5 mm from the rectus muscle and 4 mm from the limbus.
# Tissues were collected 24 hours after the second IVT injection with IFNγ. Vitreous humor (VH) and retina/choroid tissues (R/C) were collected and homogenized, and IP-10 protein levels were measured using a rabbit CXCL10 (IP-10) ELISA kit (Kingfisher Biotech). The percent inhibition of IFNγ-induced IP-10 was calculated in comparison to the vehicle/vehicle and vehicle/IFNγ groups.
# [2] = biological target: T1, Tyk2 (Homo sapiens, UniProt P29597); experiment: Assay 1: LanthaScreen biochemical JAK kinase assay, Tyk2; conditions: converted from pIC50 by Cheng-Prusoff; ATP at Km 10 μM; read-out: Tyk2 pKi (converted)
# T1 construct: GST; purchased Life Technologies
# T1 sequence (P29597 whole entry): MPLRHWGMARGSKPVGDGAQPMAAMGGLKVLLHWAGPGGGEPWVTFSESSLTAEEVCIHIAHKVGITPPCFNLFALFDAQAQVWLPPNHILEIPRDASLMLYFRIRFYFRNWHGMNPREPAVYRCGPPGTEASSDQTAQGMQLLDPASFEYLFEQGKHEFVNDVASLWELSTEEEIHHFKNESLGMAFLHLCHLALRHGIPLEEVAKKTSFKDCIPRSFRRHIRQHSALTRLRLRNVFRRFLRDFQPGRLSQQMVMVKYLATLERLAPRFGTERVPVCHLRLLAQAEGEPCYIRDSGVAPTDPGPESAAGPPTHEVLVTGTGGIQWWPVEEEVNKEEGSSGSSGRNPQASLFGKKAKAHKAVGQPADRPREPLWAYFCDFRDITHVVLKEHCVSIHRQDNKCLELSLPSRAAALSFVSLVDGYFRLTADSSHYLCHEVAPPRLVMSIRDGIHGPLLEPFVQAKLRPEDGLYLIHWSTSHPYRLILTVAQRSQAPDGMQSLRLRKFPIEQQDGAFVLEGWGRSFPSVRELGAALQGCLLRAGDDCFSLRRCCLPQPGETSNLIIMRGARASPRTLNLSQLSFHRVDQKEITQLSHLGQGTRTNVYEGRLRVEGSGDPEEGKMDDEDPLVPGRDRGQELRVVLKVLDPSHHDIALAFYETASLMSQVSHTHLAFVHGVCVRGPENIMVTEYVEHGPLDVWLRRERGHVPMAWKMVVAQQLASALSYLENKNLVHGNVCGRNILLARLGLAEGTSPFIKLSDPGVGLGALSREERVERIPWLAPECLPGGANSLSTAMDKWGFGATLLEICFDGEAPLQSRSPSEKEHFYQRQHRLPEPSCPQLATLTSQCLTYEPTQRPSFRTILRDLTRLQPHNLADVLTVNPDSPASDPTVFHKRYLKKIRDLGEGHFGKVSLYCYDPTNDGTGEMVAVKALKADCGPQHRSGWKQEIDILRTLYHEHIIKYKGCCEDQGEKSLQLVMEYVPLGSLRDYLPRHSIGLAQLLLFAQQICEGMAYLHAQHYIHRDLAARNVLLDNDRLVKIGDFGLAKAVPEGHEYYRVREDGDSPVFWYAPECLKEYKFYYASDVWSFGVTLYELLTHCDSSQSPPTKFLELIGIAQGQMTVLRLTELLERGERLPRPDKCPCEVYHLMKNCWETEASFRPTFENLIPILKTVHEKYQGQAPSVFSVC
# Experimental: A panel of four LanthaScreen JAK biochemical assays (JAK1, 2, 3 and Tyk2) were carried in a common kinase reaction buffer (50 mM HEPES, pH 7.5, 0.01% Brij-35, 10 mM MgCl2, and 1 mM EGTA). Recombinant GST-tagged JAK enzymes and a GFP-tagged STAT1 peptide substrate were obtained from Life Technologies.
# The serially diluted compound was pre-incubated with each of the four JAK enzymes and the substrate in white 384-well microplates (Corning) at ambient temperature for lh. ATP was subsequently added to initiate the kinase reactions in 10 μL total volume, with 1% DMSO. […] The plates were allowed to incubate at ambient temperature for lh before being read on the EnVision reader (Perkin Elmer). Emission ratio signals (520 nm/495 nm) were recorded and utilized to calculate the percent inhibition values based on DMSO and background controls.
# For dose-response analysis, percent inhibition data were plotted vs. compound concentrations, and IC50 values were determined from a 4-parameter robust fit model with the Prism software (GraphPad Software). Results were expressed as pIC50 (negative logarithm of IC50) and subsequently converted to pK1 (negative logarithm of dissociation constant, Ki) using the Cheng-Prusoff equation.
# [3] = test system: IL-2, IL-4, IL-6, and IFNγ signaling; experiment: Cellular assays of Assays 3 to 7 (summary statement); type: cell-based; conditions: Homo sapiens, summary over cellular Assays 3 to 7
# [4] = test system: IL-2/anti-CD3 stimulated IFNγ in human PBMCs; experiment: Assay 3: Inhibition of IL-2/anti-CD3 stimulated IFNγ in human PBMCs; type: cell-based; conditions: PBMC, 24 h stimulation, ELISA, read-out: pIC50, inhibition of IL-2/anti-CD3 stimulated IFNγ (converted)
# Text: Data are expressed as pIC50 (negative decadic logarithm IC50) values.
# [5] = IVT crystalline suspension 20 mg/mL (Example 2), 1 week pre-treatment
# [6] = IVT solution, 45 μg, 24 hour pre-treatment
# [7] = IVT solution, 180 μg, 24 hour pre-treatment
structure (smiles),measurement,setting,value
"CCc1cc(O)c(F)cc1-c1ccc2c(-c3nc4c([nH]3)CCN(C3CCN(C)CC3)C4)n[nH]c2c1 [Compound 1, 5-ethyl-2-fluoro-4-(3-(5-(1-methylpiperidin-4-yl)-4,5,6,7-tetrahydro-1H-imidazo[4,5-c]pyridin-2-yl)-1H-indazol-6-yl)phenol]",inhibition of IFNγ-induced IP-10 in retina/choroid tissues,[1]; [5],100%
same,inhibition of IFNγ-induced IP-10 in vitreous humor,[1]; [5],100%
same,inhibition of IFNγ-induced IP-10 in retina/choroid tissue,[1]; [6],86%
same,inhibition of IFNγ-induced IP-10 in vitreous humor,[1]; [6],70%
same,inhibition of IFNγ-induced IP-10 in retina/choroid tissue,[1]; [7],100%
same,inhibition of IFNγ-induced IP-10 in vitreous humor,[1]; [7],91%
same,Ki,[2],0.158 nM
same,IC50,"[3]; read-out: IC50 for inhibition of IL-2, IL-4, IL-6, and IFNγ signaling",≤ 200 nM
same,IC50,"[3]; read-out: pIC50 for inhibition of IL-2, IL-4, IL-6, and IFNγ signaling (converted)",≤ 200 nM
same,IC50,[4],~50.1 nM
